Results reported in EP2951180B1, “2,6,7,8 SUBSTITUTED PURINES AS HDM2 INHIBITORS” (Merck Sharp & Dohme Corp., priority 2013, dated 2014).
Read-outs that look alike come from different tables or passages of the source.

Molecular target: T1, HDM2 (Homo sapiens, UniProt Q00987)
T1 construct: Thioredoxin (N); made in house; host or cells: E. coli strain BL21(DE3)Rosetta
Assay: HDM2 FRET assay (inhibition of binding of FITC labeled p53-pocket peptide to HDM2)
Conditions: read-out: FRET IC50
Outline: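 Compounds were tested in 10-point serial dilution against 0.5 nM recombinant HDM2 binding 3 nM fluorescein-labeled p53-pocket peptide. Detection used 0.25 nM terbium cryptate anti-6xHis antibody in PBS buffer containing 0.01% BSA and 0.01% Tween-20.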

[1] = 0.5 nM HDM2 (residues 17 to 125), 3nM peptide, two hour incubation at room temperature

T1 sequence (Q00987 17-125): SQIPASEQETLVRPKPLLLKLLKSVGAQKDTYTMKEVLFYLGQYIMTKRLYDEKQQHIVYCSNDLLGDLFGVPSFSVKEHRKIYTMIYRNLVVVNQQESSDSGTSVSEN

For `C[C@@H](Nc1nc(-c2noc(=O)[nH]2)nc2nc(N3CCCCC3c3nccn3C)n(Cc3ccc(C(F)(F)F)cc3)c12)C1CCC1` (stereo partly drawn) [Example 9.106, 3-(6-{[(1R)-1-cyclobutylethyl]amino}-8-[2-(1-methyl-1H-imidazol-2-yl)piperidin-1-yl]-7-[4-(trifluoromethyl)benzyl]-7H-purin-2-yl)-1,2,4-oxadiazol-5(4H)-one], the IC50 (Table 9) was 11.5 nM.

Work on `C[C@@H](Nc1nc(-c2noc(=O)[nH]2)nc2nc(C(O)(c3ccccc3)C(F)(F)F)n(C[C@H]3CC[C@H](C)CC3)c12)C1CCC1` (single isomer, unassigned) [Example 22.25] yielded an IC50 (Table 22) of 501 nM.

Compound `CC1CCCC(c2nc(-c3n[nH]c(=O)o3)nc3nc(N4CCOC[C@H]4c4ccccc4)n(C[C@H]4CC[C@H](C)CC4)c23)C1` (stereo partly drawn) [Example 16.170, 5-{6-(3-methylcyclohexyl)-7-[(trans-4-methylcyclohexyl)methyl]-8-[(3R)-3-phenylmorpholin-4-yl]-7H-purin-2-yl} - 1,3,4-oxadiazol-2(3H)-one] has an IC50 [1] of 8.3 nM.

`C[C@@H](Nc1nc(C(=O)O)nc2nc(-c3cc(C4CC4)ccn3)n(C[C@H]3CC[C@H](C)CC3)c12)C1CCC1` [Example 15.17, 6-{[(1R)-1-cyclobutylethyl]amino}-8-(4-cyclopropylpyridin-2-yl)-7-[(trans-4-methylcyclohexyl)methyl]-7H-purine-2-carboxylic acid] gave an IC50 [1] of 2.09 nM.

In the case of `C[C@H]1CC[C@H](Cn2c(N3CCOC[C@H]3c3ccccc3)nc3nc(-c4noc(=O)[nH]4)nc(-n4cc(Cl)ccc4=O)c32)CC1` [Example 25.1, 5-chloro-1-{7-[(trans-4-methylcyclohexyl)methyl]-2-(5-oxo-4,5-dihydro-1,2,4-oxadiazol-3-yl)-8-[(3R)-3-phenylmorpholin-4-yl]-7H-purin-6-yl}pyridin-2(1H)-one], the IC50 (Table 25) is reported as 1.01 nM.

For `CC(C)CC(=O)Nc1nc2nc(C(=O)O)nc(N[C@H](C)C3CCC3)c2n1Cc1ccc(C(F)(F)F)cc1` [Example 9.42, 6-{[(1R)-1-cyclobutylethyl]amino}-8-[(3-methylbutanoyl)amino]-7-[4-(trifluoromethyl)benzyl]-7H-purine-2-carboxylic acid], the IC50 (Table 9) was 324 nM.

`C[C@H]1CC[C@H](Cn2c(N3CCC[C@H]3C(F)(F)F)nc3nc(-c4n[nH]c(=O)o4)nc(-c4cncc(Cl)c4)c32)CC1` [Example 16.106, 5-{6-(5-chloropyridin-3-yl)-7-[(trans-4-methylcyclohexyl)methyl]-8-[(2S)-2-(trifluoromethyl)pyrrolidin-1-yl]-7H-purin-2-yl} -1,3,4-oxadiazol-2(3H)-one] was tested, and the IC50 [1] was 0.825 nM.

In the case of `C[C@@H](Nc1nc(-c2n[nH]c(=O)o2)nc2nc(C(=O)c3ccccc3)n(C[C@H]3CC[C@H](C)CC3)c12)C1CCC1` [Example 22.22, 5-[6-{[(1R)-1-cyclobutylethyl]amino}-7-[(trans-4-methylcyclohexyl)methyl]-8-(phenylcarbonyl)-7H-purin-2-yl]-1,3,4-oxadiazol-2(3H)-one], the IC50 (Table 22) is reported as 3.93 nM.

`C[C@H]1CC[C@H](Cn2c(N3CCOC[C@H]3c3ccccc3)nc3nc(-c4noc(=O)[nH]4)nc(-c4cccc(Cl)c4)c32)CC1` [Example 16.18, 3-{6-(3-chlorophenyl)-7-[(trans-4-methylcyclohexyl)methyl]-8-[(3R)-3-phenylmorpholin-4-yl]-7H-purin-2-yl}-1,2,4-oxadiazol-5(4H)-one] was tested, and the IC50 [1] was 1.27 nM.

In the case of `C[C@@H](Nc1nc(-c2noc(=O)[nH]2)nc2nc(C(C)(F)c3ccccc3F)n(C[C@H]3CC[C@H](C)CC3)c12)C1CCC1` (single isomer, unassigned) [Example 22.65], the IC50 (Table 22) is reported as 22.6 nM.

`COCC1CCCCN1c1nc2nc(-c3noc(=O)[nH]3)nc(N[C@H](C)C3CCC3)c2n1Cc1ccc(C(F)(F)F)cc1` (stereo partly drawn) [Example 9.111, 3-(6-{[(1R)-1-cyclobutylethyl]amino}-8-[2-(methoxymethyl)piperidin-1-yl]-7-[4-(trifluoromethyl)benzyl]-7H-purin-2-yl)-1,2,4-oxadiazol-5(4H)-one] gave an IC50 (Table 9) of 8.78 nM.

With `C[C@@H](Nc1nc(C(=O)O)nc2nc(N3CCOC4(CCCC4)C3)n(Cc3ccc(C(F)(F)F)cc3)c12)C1CCC1` [Example 9.25, 6-{[(1R)-1-cyclobutylethyl]amino}-8-(6-oxa-9-azaspiro[4.5]dec-9-yl)-7-[4-(trifluoromethyl)benzyl]-7H-purine-2-carboxylic acid] the IC50 (Table 9) was 19.4 nM.

In the case of `CC(C)c1ccnc(-c2nc3nc(C(C)O)nc(N[C@H](C)C4CCC4)c3n2C[C@H]2CC[C@H](C)CC2)c1` (stereo partly drawn) [Example 12.6, 1-(6-{[(1R)-1-cyclobutylethyl]amino}-7-[(trans-4-methylcyclohexyl)methyl]-8-[4-(propan-2-yl)pyridin-2-yl]-7H-purin-2-yl)ethanol], the IC50 [1] is reported as 420 nM.

`C[C@H]1CC[C@H](Cn2c(S(=O)(=O)C3CCCC3)nc3nc(-c4n[nH]c(=O)o4)nc(-c4cncc(Cl)c4)c32)CC1` [Example 19.5, 5-{6-(5-chloropyridin-3-yl)-8-(cyclopentylsulfonyl)-7-[(trans-4-methylcyclohexyl)methyl]-7H-purin-2-yl}-1,3,4-oxadiazol-2(3H)-one] gave an IC50 (Table 19) of 5.83 nM.

For `C=C(c1ccccc1)c1nc2nc(-c3noc(=O)[nH]3)nc(N[C@H](C)C3CCC3)c2n1C[C@H]1CC[C@H](C)CC1` [Example 21.13, 3-[6-{[(1R)-1-cyclobutylethyl]amino}-7-[(trans-4-methylcyclohexyl)methyl]-8-(1-phenylethenyl)-7H-purin-2-yl]-1,2,4-oxadiazol-5(4H)-one], the IC50 (Table 21) was 1.9 nM.

`C[C@@H](Nc1nc(C(=O)O)nc2nc(N3CCCCC3c3cccc(F)c3)n(Cc3ccc(C(F)(F)F)cc3)c12)C1CCC1` (stereo partly drawn) [Example 9.116, 6-{[(1R)-1-cyclobutylethyl]amino}-8-[2-(3-fluorophenyl)piperidin-1-yl]-7-[4-(trifluoromethyl)benzyl]-7H-purine-2-carboxylic acid] was tested, and the IC50 (Table 9) was 14 nM.

`C[C@@H](Nc1nc(-c2noc(=O)[nH]2)nc2nc(C3(c4cnn(C)c4)CC3)n(C[C@H]3CC[C@H](C)CC3)c12)C1CCC1` [Example 22.63, 3-(6-{[(1R)-1-cyclobutylethyl]amino}-7-[(trans-4-methylcyclohexyl)methyl] -8-[1-(1-methyl-1H-pyrazol-4-yl)cyclopropyl]-7H-purin-2-yl)-1,2,4-oxadiazol-5(2H)-one] gave an IC50 (Table 22) of 7.93 nM.

With `COC(=O)c1nc(N[C@H](C)C2CCC2)c2c(n1)nc(N1CCOC[C@H]1c1ccccc1)n2C[C@H]1CC[C@H](C)CC1` [Example 12.13, Methyl-6-{[(1R)-1-cyclobutylethyl]amino}-7-[(trans-4-methylcyclohexyl)methyl]-8-[(3R)-3-phenylmorpholin-4-yl]-7H-purine-2-carboxylate] the IC50 [1] was 49.4 nM.

`C[C@@H](Nc1nc(-c2noc(=O)[nH]2)nc2nc(C(F)c3ccccc3)n(C[C@H]3CC[C@H](C)CC3)c12)C1CCC1` (stereo partly drawn) [Example 22.66, 3-(6-{[(1R)-1-cyclobutylethyl]amino}-8-[fluoro(phenyl)methyl]-7-[(trans-4-methylcyclohexyl)methyl] -7H-purin-2-yl)-1,2,4-oxadiazol-5(4H)-one] was tested, and the IC50 (Table 22) was 7.12 nM.

With `C[C@@H](Nc1nc(C(=O)O)nc2nc(N3CCOC[C@H]3c3ccccc3)n(C[C@H]3CC[C@H](C)CC3)c12)C1CCC1` [Example 11.10, 6-{[(1R)-1-cyclobutylethyl]amino}-7-[(trans-4-methylcyclohexyl)methyl]-8-[(3R)-3-phenylmorpholin-4-yl]-7H-purine-2-carboxylic acid] the IC50 (Table 11) was 0.202 nM.

For `Cc1cccc(-c2nc3nc(-c4nc[nH]n4)nc(N[C@H](C)C4CC4)c3n2Cc2ccc(C(F)(F)F)cc2)c1` [Example 12.28, N-[(1R)-1-cyclopropylethyl]-8-(3-methylphenyl)-2-(1H-1,2,4-triazol-3-yl)-7-[4-(trifluoromethyl)benzyl]-7H-purin-6-amine], the IC50 [1] was 314 nM.

In the case of `C[C@@H](Nc1nc(-c2noc(=O)[nH]2)nc2nc(N(C)CC3CC3)n(C[C@H]3CC[C@H](C)CC3)c12)C1CCC1` [Example 11.42, 3-(6-{[(1R)-1-cyclobutylethyl]amino}-8-[(cyclopropylmethyl) (methyl)amino]-7-[(trans-4-methylcyclohexyl)methyl]-7H-purin-2-yl)-1,2,4-oxadiazol-5(2H)-one], the IC50 (Table 11) is reported as 5.34 nM.

For `C[C@@H](Nc1nc(-c2noc(=O)[nH]2)nc2nc(C(=O)c3ccccc3)n(C[C@H]3CC[C@H](C)CC3)c12)C1CCC1` [Example 22.21, 3-[6-{[(1R)-1-cyclobutylethyl]amino}-7-[(trans-4-methylcyclohexyl)methyl]-8-(phenylcarbonyl)-7H-purin-2-yl]-1,2,4-oxadiazol-5(4H)-one], the IC50 (Table 22) was 1 nM.

For `CCN(CC1CCCCC1)c1nc2nc(-c3noc(=O)[nH]3)nc(N[C@H](C)C3CCC3)c2n1Cc1ccc(C(F)(F)F)cc1` [Example 9.95, 3-(6-{[(1R)-1-cyclobutylethyl]amino}-8-[(cyclohexylmethyl)(ethyl)amino]-7-[4-(trifluoromethyl)benzyl]-7H-purin-2-yl)-1,2,4-oxadiazol-5(4H)-one], the IC50 (Table 9) was 27.2 nM.

Work on `C[C@@H](Nc1nc(C(=O)O)nc2nc(N3CCCC[C@@H]3c3ccccc3)n(Cc3ccc(C(F)(F)F)cc3)c12)C1CCC1` [Example 9.62, 6-{[(1R)-1-cyclobutylethyl]amino}-8-[(2R)-2-phenylpiperidin-1-yl]-7-[4-(trifluoromethyl)benzyl]-7H-purine-2-carboxylic acid] yielded an IC50 (Table 9) of 17.3 nM.

`CC(C)c1ccnc(-c2nc3nc(C(C)(C)O)nc(N[C@H](C)C4CCC4)c3n2C[C@H]2CC[C@H](C)CC2)c1` [Example 12.7, 2-(6-{[(1R)-1-cyclobutylethyl]amino}-7-[(trans-4-methylcyclohexyl)methyl]-8-[4-(propan-2-yl)pyridin-2-yl]-7H-purin-2-yl)propan-2-ol] was tested, and the IC50 [1] was 731 nM.
